Test results from PMC11459966, “Oral pharmacokinetics and efficacy of oral phospholipid remdesivir nucleoside prodrugs against SARS-CoV-2 in mice” (Antimicrobial Agents and Chemotherapy, 2024).
Like-named read-outs stand apart in the source and are kept apart here.

How the values were obtained:
[1] = system: SARS-CoV-2 isolate USA-WA1/2020; assay: microbe, parasite or virus in culture
[2] = Cell viability assay (CellTiter-Glo), A2T2-A549; conditions: human, A2T2-A549 cells
[3] = system: SARS-CoV-2 isolate USA-WA1/2020; assay: microbe, parasite or virus in culture; type: cell-based; conditions: Severe acute respiratory syndrome coronavirus 2; Calu-3 cells, 44–48 hpi
[4] = Cell viability assay (CellTiter-Glo), Calu-3; conditions: human, Calu-3 cells
[5] = Cell viability assay (CellTiter-Glo), Vero-TMPRSS2; type: cell-based, African green monkey; conditions: African green monkey, Vero-TMPRSS2 cells, 48 h incubation
Procedure: Cell viability assays (Table 1) were performed as previously described ([7]). Cells were cultured and seeded as per in vitro antiviral studies in opaque walled 96-well cell culture plates and incubated overnight for Huh7.5, A2T2-A549, and Vero-E6-TMPRSS2 cells and for 2 days for Calu-3 cells. Compounds or controls were added at the indicated concentrations in a total volume of 100 µL, and cells were incubated for 48 h. An equal volume of CellTiter-Glo reagent (Promega, Cat. #G7570) or CellTiter-Glo 2.0 reagent (Promega, Cat. #G9241) was added and mixed, and luminescence was recorded on a Veritas Microplate Luminometer (Turner BioSystems) or a Spark Multimode plate reader (Tecan) according to manufacturer instructions. Percent viability was normalized to DMSO controls, and CC50 values were derived from best fit curves calculated in Prism 10.

[6] = system: SARS-CoV-2 isolate USA-WA1/2020; assay: microbe, parasite or virus in culture; remark: listed apart in the source
[7] = system: SARS-CoV-2 isolate USA-WA1/2020; conditions: A2T2-A549
[8] = system: SARS-CoV-2 isolate USA-WA1/2020; assay: microbe, parasite or virus in culture; remark: listed apart in the source
[9] = system: SARS-CoV-2 isolate USA-WA1/2020; conditions: Vero-TMPRSS2
[10] = Cell viability assay (CellTiter-Glo), Huh7.5; conditions: human, Huh7.5 cells

N#C[C@@]1(c2ccc3c(N)ncnn23)O[C@H](CO)[C@@H](O)[C@H]1O [RVn, reference compound]
EC50 ([1]; Severe acute respiratory syndrome coronavirus 2, Huh7.5, read-out: EC50 μM ± SD): 1.36 ± 0.544 µM | EC90 ([1]; Severe acute respiratory syndrome coronavirus 2, Huh7.5, read-out: EC90 μM ± SD): 2.96 ± 0.866 µM | CC50 at 48 h [2]: > 100000 nM | EC50 [3]: 0.665 ± 0.284 µM | EC90 [3]: 1.89 ± 0.497 µM | CC50 at 48 h [4]: > 100000 nM | CC50 at 48 h [5]: > 100000 nM | EC50 ([6]; Severe acute respiratory syndrome coronavirus 2, Vero/TMPRSS2, read-out: EC50 μM ± SD): 1.08 ± 0.264 µM | EC90 ([6]; Severe acute respiratory syndrome coronavirus 2, Vero/TMPRSS2, read-out: EC90 μM ± SD): 2.43 ± 0.692 µM | SI (CC50/EC50) [7]: >33 | EC50 ([8]; Severe acute respiratory syndrome coronavirus 2, read-out: EC50 μM ± SD): 3.01 ± 0.038 µM | EC90 ([8]; Severe acute respiratory syndrome coronavirus 2, read-out: EC90 μM ± SD): 4.49 ± 0.256 µM | SI (CC50/EC50) [9]: >92 | CC50 at 48 h [10]: > 100000 nM
